Our source for the relative viability values is the supplement of paper PMC10307832.

Common to all, as to assay: relative viability (nuclei count vs DMSO), 5 days (fraction); higher = more cells survive
For one assay, the system named is HARA. The gist of the method:
(§1)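 After 5 days of treatment, lung cancer cells in 1536-well plates were fixed and stained in a single step (final 0.05% Triton X-100, 1% formaldehyde, 1 ug/ml Hoechst) and their nuclei counted on 4× images. Treatment had been applied by pin tool the day after seeding as one drug alone or as a fixed anchor-drug dose with five library-drug doses (not always all listed) in √10 steps. Relative viability is the nuclei count of treated wells divided by that of vehicle wells, and values are medians of duplicate plates.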

The next assay has as its system LXF-289. The gist of the method:
as §1

Another assay relates to NCI-H650. The method in brief:
as §1

Another assay has as its system NCI-H1623. The gist of the method:
as §1

Another assay deals with NCI-H1563. The gist of the method: as §1
The subject of a further assay is EBC-1. The gist of the method: as §1
The next assay has as its system A549. The gist of the method: as §1
Another assay concerns IA-LM. The method in brief: as §1
A further assay deals with NCI-H1703. The method in brief:
as §1

The test system of the next assay is Calu-6. The method in brief: as §1
The next assay relates to NCI-H1299. The method in brief:
as §1

Regarding `Oc1nc(-c2ccc(C(F)(F)F)cc2)nc2c1CSCC2` [XAV939] + Cc1nc(Nc2ncc(C(=O)Nc3c(C)cccc3Cl)s2)cc(N2CCN(CCO)CC2)n1 [Dasatinib] (partner 0.075 µM), the relative viability with HARA (first compound 0.08 µM) is 0.229; in the assay on HARA (first compound 0.253 µM), 0.201; in the assay with HARA (first compound 0.8 µM) it was 0.275; in the assay with HARA (first compound 2.53 µM), 0.256; with LXF-289 (first compound 0.08 µM), 0.179; with LXF-289 (first compound 0.253 µM), 0.167. The relative viability in the assay with LXF-289 (first compound 0.8 µM) came to 0.178; in the assay with LXF-289 (first compound 2.53 µM), 0.139; with NCI-H650 (first compound 0.08 µM), 0.497; in the assay with NCI-H650 (first compound 0.253 µM) it was 0.501; with NCI-H650 (first compound 0.8 µM) it was 0.444; in the assay on NCI-H650 (first compound 2.53 µM), 0.414. In addition, the relative viability in the assay with NCI-H1623 (first compound 0.08 µM) came out at 0.474; with NCI-H1623 (first compound 0.253 µM), 0.516; with NCI-H1623 (first compound 0.8 µM), 0.521; in the assay on NCI-H1623 (first compound 2.53 µM) it was 0.555; in the assay on NCI-H1563 (first compound 0.08 µM), 0.422; in the assay on NCI-H1563 (first compound 0.253 µM), 0.442. In addition, the relative viability was 0.475 in the assay on NCI-H1563 (first compound 0.8 µM) and 0.415 with NCI-H1563 (first compound 2.53 µM).
Turning to `C=C1C(=O)O[C@@H](CCCCCCCC)[C@@H]1C(=O)O` [C-75] + CC(=O)c1c(C)c2cnc(Nc3ccc(N4CCNCC4)cn3)nc2n(C2CCCC2)c1=O [Palbociclib] (partner 0.5 µM), the relative viability in the assay with HARA (first compound 0.08 µM) was 0.254; with HARA (first compound 0.253 µM), 0.222; with HARA (first compound 0.8 µM), 0.273; in the assay on HARA (first compound 2.53 µM), 0.222; with HARA (first compound 8 µM), 0.28; in the assay on LXF-289 (first compound 0.08 µM), 0.567. In addition, the relative viability came to 0.553 with LXF-289 (first compound 0.253 µM); 0.597 with LXF-289 (first compound 0.8 µM); 0.604 in the assay on LXF-289 (first compound 2.53 µM); 0.621 with LXF-289 (first compound 8 µM); 0.31 in the assay on NCI-H650 (first compound 0.08 µM); 0.27 in the assay on NCI-H650 (first compound 0.253 µM). Moreover, the relative viability with NCI-H650 (first compound 0.8 µM) came to 0.36; in the assay with NCI-H650 (first compound 2.53 µM), 0.283; with NCI-H650 (first compound 8 µM), 0.39.
`C=C1C(=O)O[C@@H](CCCCCCCC)[C@@H]1C(=O)O` [C-75] + CC(=O)Nc1cccc(-n2c(=O)n(C3CC3)c(=O)c3c(Nc4ccc(I)cc4F)n(C)c(=O)c(C)c32)c1 [Trametinib] (partner 0.02 µM): the relative viability in the assay on HARA (first compound 0.08 µM) was 0.662; with HARA (first compound 0.253 µM), 0.931; in the assay on HARA (first compound 0.8 µM) it was 0.766; in the assay on HARA (first compound 2.53 µM) it was 0.587; in the assay on HARA (first compound 8 µM), 0.646; in the assay with LXF-289 (first compound 0.08 µM), 0.646. Moreover, the relative viability amounted to 0.683 in the assay on LXF-289 (first compound 0.253 µM); 0.657 in the assay on LXF-289 (first compound 0.8 µM); 0.664 in the assay with LXF-289 (first compound 2.53 µM); 0.672 in the assay on LXF-289 (first compound 8 µM); 0.965 in the assay with NCI-H650 (first compound 0.08 µM); 0.961 in the assay on NCI-H650 (first compound 0.253 µM). Moreover, the relative viability in the assay with NCI-H650 (first compound 0.8 µM) worked out at 0.967; in the assay with NCI-H650 (first compound 2.53 µM), 0.768; with NCI-H650 (first compound 8 µM) it was 1.
For the molecule `Oc1nc(-c2ccc(C(F)(F)F)cc2)nc2c1CSCC2` [XAV939] + O=C(c1cc(Cc2n[nH]c(=O)c3ccccc23)ccc1F)N1CCN(C(=O)C2CC2)CC1 [Olaparib] (partner 8 µM), the relative viability in the assay on EBC-1 (first compound 0.08 µM) was determined as 0.722; in the assay on EBC-1 (first compound 0.253 µM) it was 0.623; in the assay on EBC-1 (first compound 0.8 µM) it was 0.619; with EBC-1 (first compound 2.53 µM), 0.607; in the assay on A549 (first compound 0.08 µM), 0.357; with A549 (first compound 0.253 µM), 0.265. The relative viability is 0.246 with A549 (first compound 0.8 µM); 0.19 in the assay with A549 (first compound 2.53 µM); 0.824 with IA-LM (first compound 0.08 µM); 0.633 in the assay on IA-LM (first compound 0.253 µM); 0.728 with IA-LM (first compound 0.8 µM); 0.699 with IA-LM (first compound 2.53 µM). Besides, the relative viability in the assay on HARA (first compound 0.08 µM) worked out at 0.832; in the assay with HARA (first compound 0.253 µM) it was 0.862; in the assay with HARA (first compound 0.8 µM) it was 0.759; in the assay with HARA (first compound 2.53 µM), 0.661; with NCI-H1703 (first compound 0.08 µM), 0.415; in the assay with NCI-H1703 (first compound 0.253 µM) it was 0.236. For the same molecule, the relative viability with NCI-H1703 (first compound 0.8 µM) worked out at 0.408; in the assay on NCI-H1703 (first compound 2.53 µM), 0.485; with LXF-289 (first compound 0.08 µM), 1.13; with LXF-289 (first compound 0.253 µM) it was 1.05; in the assay with LXF-289 (first compound 0.8 µM), 1.08; with LXF-289 (first compound 2.53 µM), 1.07. Besides, the relative viability in the assay on Calu-6 (first compound 0.08 µM) worked out at 0.556; in the assay with Calu-6 (first compound 0.253 µM), 0.547; in the assay with Calu-6 (first compound 0.8 µM), 0.544; with Calu-6 (first compound 2.53 µM), 0.504; in the assay with NCI-H650 (first compound 0.08 µM) it was 0.413; with NCI-H650 (first compound 0.253 µM), 0.426. Moreover, the relative viability in the assay on NCI-H650 (first compound 0.8 µM) came out at 0.47; with NCI-H650 (first compound 2.53 µM), 0.372; in the assay with NCI-H1299 (first compound 0.08 µM), 0.937; with NCI-H1299 (first compound 0.253 µM), 0.883; with NCI-H1299 (first compound 0.8 µM), 0.931; with NCI-H1299 (first compound 2.53 µM) it was 0.914.
On to `Oc1nc(-c2ccc(C(F)(F)F)cc2)nc2c1CSCC2` [XAV939] + CC(=O)c1c(C)c2cnc(Nc3ccc(N4CCNCC4)cn3)nc2n(C2CCCC2)c1=O [Palbociclib] (partner 0.5 µM), for which the relative viability in the assay on HARA (first compound 0.08 µM) was 0.334; with HARA (first compound 0.253 µM), 0.22; with HARA (first compound 0.8 µM) it was 0.234; in the assay on HARA (first compound 2.53 µM) it was 0.242; in the assay with LXF-289 (first compound 0.08 µM) it was 0.565; in the assay with LXF-289 (first compound 0.253 µM) it was 0.571. In addition, the relative viability in the assay with LXF-289 (first compound 0.8 µM) turned out to be 0.588; in the assay with LXF-289 (first compound 2.53 µM), 0.632; in the assay with NCI-H650 (first compound 0.08 µM), 0.376; in the assay with NCI-H650 (first compound 0.253 µM) it was 0.35; with NCI-H650 (first compound 0.8 µM), 0.333; with NCI-H650 (first compound 2.53 µM) it was 0.303.
